Assay results reported in ChEMBL document CHEMBL5154929, “Optimization of the Natural Product Calothrixin A to Discover Novel Dual Topoisomerase I and II Inhibitors with Improved Anticancer Activity” (J Med Chem, 2022).
Active and inactive are the calls of the source. No cut-off for these calls is given here.

How the values were obtained:
MCF7 = test: Cytotoxicity against human MCF7 cells expressing high level of topoisomerase I/II measured after 72 hrs by MTT assay; format: functional, cell-based; details: MCF7, 72 h
A-375 = test: Cytotoxicity against human A-375 cells expressing high level of topoisomerase I/II measured after 72 hrs by MTT assay; format: functional, cell-based; details: A-375, 72 h
[1] = Cytotoxicity against human HEK293T cells measured after 72 hrs by MTT assay; format: toxicity, cell-based, HEK-293T
A549 = test: Cytotoxicity against human A549 cells expressing high level of topoisomerase I/II measured after 72 hrs by MTT assay; format: functional, cell-based; details: A549, 72 h
HCT-116 [2] = test: Cytotoxicity against human HCT-116 cells expressing high level of topoisomerase I/II measured after 72 hrs by MTT assay; format: functional, cell-based; details: HCT-116, 72 h
[3] = target: DNA topoisomerase 2-alpha (Homo sapiens) (UniProt P11388); test: Inhibition of human DNA topoisomerase II-alpha relaxation activity at 100 uM incubated for 30 mins by chemiDoc system
DNA topoisomerase 2-alpha (Homo sapiens), sequence (P11388 whole entry): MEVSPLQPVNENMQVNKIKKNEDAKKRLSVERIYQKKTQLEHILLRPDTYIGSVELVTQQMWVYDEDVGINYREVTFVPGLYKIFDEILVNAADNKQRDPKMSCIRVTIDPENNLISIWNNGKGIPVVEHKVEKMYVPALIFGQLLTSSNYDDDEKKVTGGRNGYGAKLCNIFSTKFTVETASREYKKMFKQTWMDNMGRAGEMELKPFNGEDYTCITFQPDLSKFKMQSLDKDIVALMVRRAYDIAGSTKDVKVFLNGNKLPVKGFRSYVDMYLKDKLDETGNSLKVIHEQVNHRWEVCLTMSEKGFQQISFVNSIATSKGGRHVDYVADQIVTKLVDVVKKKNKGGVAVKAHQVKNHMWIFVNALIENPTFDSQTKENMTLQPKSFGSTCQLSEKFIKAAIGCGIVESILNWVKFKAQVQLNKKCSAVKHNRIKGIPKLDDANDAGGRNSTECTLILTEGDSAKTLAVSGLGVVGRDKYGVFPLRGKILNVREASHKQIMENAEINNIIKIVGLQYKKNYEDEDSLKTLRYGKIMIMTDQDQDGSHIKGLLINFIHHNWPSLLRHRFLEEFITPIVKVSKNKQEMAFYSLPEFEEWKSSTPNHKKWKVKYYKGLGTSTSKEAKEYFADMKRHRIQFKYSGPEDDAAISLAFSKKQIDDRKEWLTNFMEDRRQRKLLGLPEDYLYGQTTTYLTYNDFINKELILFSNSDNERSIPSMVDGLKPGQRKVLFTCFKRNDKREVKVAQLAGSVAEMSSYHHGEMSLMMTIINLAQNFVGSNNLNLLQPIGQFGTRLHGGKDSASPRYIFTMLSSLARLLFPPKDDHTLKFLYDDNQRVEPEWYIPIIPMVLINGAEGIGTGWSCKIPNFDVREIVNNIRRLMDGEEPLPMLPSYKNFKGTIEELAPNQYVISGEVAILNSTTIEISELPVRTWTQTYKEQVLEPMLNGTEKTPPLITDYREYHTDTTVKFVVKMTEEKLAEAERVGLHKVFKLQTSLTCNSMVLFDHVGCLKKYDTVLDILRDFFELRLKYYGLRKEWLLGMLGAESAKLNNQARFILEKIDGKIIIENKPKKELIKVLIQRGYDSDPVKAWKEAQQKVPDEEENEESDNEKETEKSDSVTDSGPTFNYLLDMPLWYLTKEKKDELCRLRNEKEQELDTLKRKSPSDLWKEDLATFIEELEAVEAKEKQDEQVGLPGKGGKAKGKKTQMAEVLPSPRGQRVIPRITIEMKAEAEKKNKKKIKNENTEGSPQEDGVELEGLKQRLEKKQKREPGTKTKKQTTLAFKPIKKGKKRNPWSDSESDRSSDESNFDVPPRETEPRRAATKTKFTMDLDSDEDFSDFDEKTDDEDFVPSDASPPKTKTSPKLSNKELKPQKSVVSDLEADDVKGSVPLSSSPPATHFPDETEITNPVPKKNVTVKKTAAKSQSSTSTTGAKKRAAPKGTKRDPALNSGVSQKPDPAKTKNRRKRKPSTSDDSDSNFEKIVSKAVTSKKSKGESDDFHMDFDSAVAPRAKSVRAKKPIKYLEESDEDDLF

SH-SY5Y = test: Cytotoxicity against human SH-SY5Y cells expressing low level of topoisomerase I/II measured after 72 hrs by MTT assay; format: functional, cell-based
[4] = Cytotoxicity against human L02 cells measured after 72 hrs by MTT assay; format: toxicity, cell-based
[5] = target: T1, DNA topoisomerase 1 (Homo sapiens) (UniProt P11387); test: Inhibition of DNA topoisomerase I (unknown origin) relaxation activity at 100 uM incubated for 30 mins by chemiDoc system
T1 sequence (whole entry): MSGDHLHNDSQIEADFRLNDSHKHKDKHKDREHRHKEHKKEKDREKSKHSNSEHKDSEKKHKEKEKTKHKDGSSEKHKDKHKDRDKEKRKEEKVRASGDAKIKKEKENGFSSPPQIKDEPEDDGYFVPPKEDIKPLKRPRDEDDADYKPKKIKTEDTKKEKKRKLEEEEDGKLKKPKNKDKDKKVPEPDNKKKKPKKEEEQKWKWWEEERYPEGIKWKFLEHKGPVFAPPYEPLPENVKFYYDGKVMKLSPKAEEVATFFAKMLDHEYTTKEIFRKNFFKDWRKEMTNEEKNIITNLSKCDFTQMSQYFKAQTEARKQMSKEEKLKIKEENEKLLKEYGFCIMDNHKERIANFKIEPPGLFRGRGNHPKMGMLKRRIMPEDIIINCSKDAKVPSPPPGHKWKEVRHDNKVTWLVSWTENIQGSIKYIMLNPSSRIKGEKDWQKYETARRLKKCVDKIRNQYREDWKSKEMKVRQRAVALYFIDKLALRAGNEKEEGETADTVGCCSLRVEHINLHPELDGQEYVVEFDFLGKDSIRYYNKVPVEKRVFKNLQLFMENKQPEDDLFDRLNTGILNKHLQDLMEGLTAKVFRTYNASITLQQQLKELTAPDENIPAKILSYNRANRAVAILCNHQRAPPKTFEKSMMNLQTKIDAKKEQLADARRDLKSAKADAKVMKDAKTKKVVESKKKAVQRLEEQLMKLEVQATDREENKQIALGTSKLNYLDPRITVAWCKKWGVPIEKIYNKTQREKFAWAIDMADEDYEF

MDA-MB-231 = test: Cytotoxicity against human MDA-MB-231 cells expressing high level of topoisomerase I/II measured after 72 hrs by MTT assay; format: functional, cell-based; details: MDA-MB-231, 72 h
[6] = target: DNA topoisomerase 2-alpha (Homo sapiens) (UniProt P11388); test: Poison activity at human topoisomerase II-alpha assessed as stabilization of enzyme-DNA cleavage complex by measuring nicked DNA formation at 100 uM after 60 mins by agarose gel electrophoresis method
HCT-116 [7] = test: Antiproliferative activity against doxorubicin sensitive human HCT-116 cells measured after 72 hrs by MTT assay; format: functional, cell-based; details: HCT-116, 72 h
HCT-116 [8] = test: Antiproliferative activity against doxorubicin resistant human HCT-116 cells measured after 72 hrs by MTT assay; format: functional, cell-based; details: HCT-116, 72 h

CN1CCN(CCCCn2c3c(c4ccccc42)C(=O)c2c[n+]([O-])c4ccccc4c2C3=O)CC1
IC50 (MCF7): 100 nM
IC50 (A-375): 30 nM
IC50 at 72 h [1]: 100 nM
IC50 (A549): 90 nM
IC50 (HCT-116 [2]): 10 nM
inhibition [3]: Active
IC50 (SH-SY5Y): 100 nM
IC50 at 72 h [4]: 80 nM
inhibition [5]: Active
IC50 (MDA-MB-231): 110 nM
Activity [6]: Active

CN1CCN(CCCCCn2c3c(c4ccccc42)C(=O)c2c[n+]([O-])c4ccccc4c2C3=O)CC1
IC50 (MCF7): 1260 nM
IC50 (A-375): 1710 nM
IC50 (A549): 870 nM
IC50 (HCT-116 [2]): 1220 nM
IC50 (SH-SY5Y): 830 nM
IC50 at 72 h [4]: 1640 nM
inhibition [5]: Active
IC50 (MDA-MB-231): 2270 nM

COc1cccc2c1C(=O)c1c(O)c3c(c(O)c1C2=O)C[C@@](O)(C(=O)CO)C[C@@H]3O[C@H]1C[C@H](N)[C@H](O)[C@H](C)O1 [DOXORUBICIN]
IC50 (A-375): 260 nM
IC50 (HCT-116 [7]): 290 nM
IC50 (HCT-116 [2]): 340 nM
IC50 (SH-SY5Y): 800 nM
IC50 (HCT-116 [8]): 2050 nM
IC50 (MDA-MB-231): 810 nM

CC1(C)O[C@@H](CO)[C@H](Cn2cc(Cn3c4c(c5ccccc53)C(=O)c3c[n+]([O-])c5ccccc5c3C4=O)nn2)O1
IC50 (MCF7): 690 nM
IC50 (A-375): 190 nM
IC50 at 72 h [1]: 120 nM
IC50 (A549): 370 nM
IC50 (HCT-116 [2]): 130 nM
IC50 (SH-SY5Y): > 1000 nM
IC50 at 72 h [4]: 500 nM
IC50 (MDA-MB-231): 680 nM

O=C1c2c[n+]([O-])c3ccccc3c2C(=O)c2c1c1ccccc1n2CCCN1CCOCC1
IC50 (MCF7): 450 nM
IC50 (A-375): 330 nM
IC50 at 72 h [1]: 170 nM
IC50 (A549): 400 nM
IC50 (HCT-116 [2]): 410 nM
IC50 (SH-SY5Y): 590 nM
IC50 at 72 h [4]: 550 nM
IC50 (MDA-MB-231): 550 nM

CC(=O)OC[C@H]1O[C@@H](n2cc(Cn3c4c(c5ccccc53)C(=O)c3c[n+]([O-])c5ccccc5c3C4=O)nn2)[C@H](OC(C)=O)[C@@H]1OC(C)=O
IC50 (MCF7): 460 nM
IC50 (A-375): 150 nM
IC50 at 72 h [1]: 900 nM
IC50 (A549): 1160 nM
IC50 (HCT-116 [2]): 650 nM
IC50 (SH-SY5Y): 1900 nM
IC50 at 72 h [4]: 270 nM
IC50 (MDA-MB-231): 600 nM
